The nature of data set [1]: 1O2 quantum yield measurement with ABDA, Rose Bengal standard. In kind it is physicochemical. The conditions noted are these: for 1O2 quantum yield: in water, white light, relative to Rose Bengal; for degradation rate of ABDA: white light irradiation, ABDA absorbance at 378 nm. How it is done: The ^1O2-sensitive indicator, 9,10-anthracenediyl-bis(methylene) dimalonic acid (ABDA), was used as the ^1O2-trapping agent, and Rose Bengal (RB) was used as the standard photosensitizer. In these experiments, 10 μL of ABDA solution ([…]) was added to 1 mL of sample solution, and white light (400-800 nm) with a power density of 0.25 W cm^−2 was employed as the irradiation source. The absorbance of ABDA at 378 nm was recorded at different irradiation time to obtain the decay rate of the photosensitizing process. The ^1O2 quantum yield of the PS in water (ΦPS) was calculated using the following formula: […]
Where KPS and KRB are the decomposition rate constants of ABDA by the PSs and RB, respectively. APS and ARB represent the light absorbed by the PSs and RB, respectively, which are determined by integration of the optical absorption bands in the wavelength range 400-800 nm. ΦRB is the ^1O2 quantum yield of RB, and ΦRB=0.75 in water.
To assess capabilities of PPDC, TPPDC, and TPDC in ^1O2 generation, a commercial ^1O2 probe ABDA was used as an indicator and Rose Bengal (RB) was used as the standard photosensitizer (^1O2 quantum yield ORB=0.75 in water). In the presence of PSs or RB under irradiation with white light, the absorbance of the ABDA solution at 378 nm, decreases with prolonged irradiation time, indicating the degradation of ABDA by ^1O2 generated by PSs. […] Thus, the ^1O2 quantum yield of PPDC, TPPDC and TPDC was calculated to be 0.89, 0.32 and 0.28, respectively. These findings agree well with the prediction based on eq. (1).

Data set [2] is described as follows: ROS generation of AIE residue of prodrug, ABDA absorbance. To be noted: 12 min light irradiation, 0.25 W cm-2. In kind it is physicochemical. The text has this: The ROS generation of the AIE residue was studied by measuring the absorption spectra of the mixture of TPECB-Pt-D5-cRGD and 9,10-anthracenediyl-bis(methylene)dimalonic acid (ABDA) in DMSO/PBS (v/v=1/199) upon light irradiation. It should be noted that the absorbance of TPECB-Pt-D5-cRGD is low and will not disturb the absorbance change of ABDA. As depicted in FIG. 23D, the absorption peaks at 358 nm, 378 nm and 400 nm attributed to the anthracene moiety in ABDA decreased gradually upon light irradiation. This is due to the fact that ABDA can efficiently trap ROS by fast reaction with the anthracene moiety.

The test system of the next data set is 293T cells. The experiment in a line: MTT anti-proliferative assay. The conditions noted are these: in dark or with light irradiation. In kind it is cell-based. On the procedure:
(§1) Subsequently, the anti-proliferative properties of TPECB-Pt-D5-cRGD towards MDA-MB-231 cells, U87-MG cells, MCF-7 cells and 293T cells were evaluated by MTT assays. The MDA-MB-231 cells are cisplatin resistant while U87-MG cells are cisplatin-sensitive. […] It should be noted that the cytotoxicity of cisplatin to both cells was not affected by the light irradiation.
Background: Formazan colour is commonly taken as a measure of viable cells.

The subject of the next data set is MCF-7 cells. The experiment in a line: MTT anti-proliferative assay. In kind it is cell-based. To be noted: in dark or with light irradiation. On the procedure: as §1
The conditions of data set [3]: in water; cited from earlier work.
The test system of a further data set is U87-MG cells. The experiment in a line: MTT anti-proliferative assay. In kind it is cell-based. The conditions noted are these: not affected by light irradiation. On the procedure:
as §1

A further data set deals with MDA-MB-231 cells. The experiment in a line: Combination index (C.I.) analysis from dose-effect profiles. In kind it is cell-based. The conditions noted are these: drug effect levels from 75% to 25%. On the procedure:
To confirm the drug synergy in cRGD-TPE-Pt-DOX, the combination index (C.I.) was calculated. The C.I. derived from the dose-effect profiles was plotted against drug effect level, which provided quantitative information of the combination drug effect, where C.I. values lower than, equal to, or higher than 1 denote synergism, additivity, or antagonism, respectively.
The combination therapy of cisplatin and DOX towards MDA-MB-231 cells was evaluated by the combination index (C.I.) analysis. The C.I. was calculated as follows: C.I.=D1/Df1+D2/Df2+D1D2/Df1Df2. Where. Df1 is the dose of Drug-1 required to produce x percent effect alone and D1 is the dose of Drug-1 required to produce the same x percent effect in combination with Drug-2; similarly, Df2 is the dose of Drug-2 required to produce x percent effect alone and D2 is the dose of Drug-2 required to produce the same x percent effect in combination with Drug-1. Theoretically, C.I. is the ratio of the combination dose to the sum of the single-drug doses at an isoeffective level. Consequently, C.I. values <1 indicate synergism, values >1 show antagonism, and values=1 indicate additive effects.

Data set [4] has as its system MDA-MB-231, MCF-7 and 293T cells. The data set can be described thus: Annexin V-FITC/PI apoptosis staining. To be noted: 6 h incubation; only MDA-MB-231 strong apoptotic fluorescence, MCF-7 and 293T negligible. In kind it is cell-based. On the procedure:
The toxicity of cRGD-TPE-Pt-DOX to different cells was also studied using MDA-MB-231, MCF-7 and 293T cells as examples. After incubation with cRGD-TPE-Pt-DOX for 6 h, the cells were stained with Annexin V-FITC/Propidium Iodide (PI), which are commonly used fluorescent probes to distinguish viable cells from apoptosis ones. […] This should be due to the integrin mediated endocytosis, which leads to selective cellular uptake of the prodrug cRGD-TPE-Pt-DOX.

Consider 7 compounds from US20170168041A1, “Polymers And Oligomers With Aggregation-Induced Emission Characteristics For Imaging And Image-Guided Therapy” (National University of Singapore, priority 2014, published 2017).

SMILES strings stand for the structures.

Turning to `COc1ccc(C(=C(c2ccccc2)c2ccc(-c3ccc(C(C)=C(C#N)C#N)cc3)cc2)c2ccc(OC)cc2)cc1` [PPDC], in data set [1], the 1O2 quantum yield was 0.89 and the “degradation rate of ABDA” value amounted to 0.0032.
The like results for `COc1ccc(C(=C(c2ccccc2)c2ccc(C(=C(C#N)C#N)c3ccccc3)cc2)c2ccc(OC)cc2)cc1` [TPPDC] were, in that order, 0.32 and 0.0018.
The like results for `COc1ccc(C(=C(c2ccccc2)c2ccc(C(C)=C(C#N)C#N)cc2)c2ccc(OC)cc2)cc1` [TPDC] were, in that order, 0.28 and 0.0013.
For `COc1ccc(C(=C(c2ccccc2)c2ccc(C(/C=C/c3ccc(OCCCNC(=O)CCC(=O)[O][Pt-2]([NH3+])([NH3+])([Cl])([Cl])[O]C(=O)CCC(=O)N[C@@H](CC(=O)O)C(=O)N[C@@H](CC(=O)O)C(=O)N[C@@H](CC(=O)O)C(=O)N[C@@H](CC(=O)O)C(=O)N[C@@H](CC(=O)O)C(=O)NCCCC[C@@H]4NC(=O)[C@@H](Cc5ccccc5)NC(=O)[C@H](CC(=O)O)NC(=O)CNC(=O)[C@H](CCCNC(=N)N)NC4=O)cc3)=C(C#N)C#N)cc2)c2ccc(OC)cc2)cc1` [TPECB-Pt-D5-cRGD], the “ABDA absorption at 400 nm, % of original value” in data set [2] is listed as 24.1%. The cytotoxicity result in the data set on 293T cells and with MCF-7 cells was “minimum cytotoxicity” throughout.
Consider `O=C([O-])c1c(Cl)c(Cl)c(Cl)c(Cl)c1-c1c2cc(I)c(=O)c(I)c-2oc2c(I)c([O-])c(I)cc12.[Na+].[Na+]` [Rose Bengal], for which the “1O2 quantum yield of standard” value in data set [3] is 0.75.
On to `N.N.[Cl][Pt][Cl]` [cisplatin], for which, in the data set with U87-MG cells, the 50% inhibitory concentration (IC50) is 5.4 µM.
On to `COc1cccc2c1C(=O)c1c(O)c3c(c(O)c1C2=O)C(OC1CC(NC(=O)CCC(=O)[O][Pt]([NH2])([NH2])([Cl])([Cl])[O]C(=O)CCC(=O)NCc2cn(Cc4ccc(/C(=C(\c5ccccc5)c5ccc(Cn6cc(C[C@@H]7NC(=O)[C@@H](Cc8ccccc8)NC(=O)[C@H](CC(=O)O)NC(=O)CNC(=O)[C@H](CCCNC(=N)N)NC7=O)nn6)cc5)c5ccccc5)cc4)nn2)C(O)C(C)O1)CC(O)(C(=O)CO)C3` (stereo partly shown) [cRGD-TPE-Pt-DOX], for which the “combination index (C.I.) result” value in the data set on MDA-MB-231 cells is listed as “synergistic effect”. The selective apoptosis result in data set [4] is given as “selectively kill integrin overexpressed cancer cells”.

As usually defined, the IC50 is the concentration at which inhibition is half-maximal.
